Data published in patent publication US9023789B2, “Amylin analogs and pharmaceutical compositions thereof” (Novo Nordisk A/S, priority 2012, dated 2015).
Numbered stars: 1 amine (or outer) side, 2 acyl side, 3 side chain; on linkers, the order of the positions; unused ones are H or OH. Bridge positions count the residues as written; N and C are the ends. Side chains are listed from the residue outwards. Peptide text beside a SMILES is read from it. * marks the point of attachment. C20 diacid = O=C(O)CCCCCCCCCCCCCCCCCCC(=O)*; γGlu = O=C(O)[C@H](CCC(=O)[*:2])N[*:1]

What was measured:
[1] = ASSAY (III) ThT fibrillation assay for physical stability; type: physicochemical
In short: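 Physical stability scored by ThT fluorescence (444 nm excitation, 485 nm emission) tracked every 20 min during 37 °C incubation with 960 rpm shaking, ThT at 1 μM final. Values are replicate means with SD at chosen times; HPLC against pramlintide standard gives initial and post-assay soluble concentrations.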

[2] = biological target: T1, rat amylin receptor (rat calcitonin receptor + rat RAMP 3) (Rattus norvegicus, UniProt P32214+Q9JJ73); assay: ASSAY (VI) binding to the rat amylin receptor; settings: for IC50: binding to rat amylin receptor, read-out: rAmylin-R bind IC50
T1 construct: expressed in transfected cells; host or cells: BHK tk'ts 13 (transient, FuGENE 6), membranes
T1 sequence (P32214 25-479 isoform P32214-2 limits assumed): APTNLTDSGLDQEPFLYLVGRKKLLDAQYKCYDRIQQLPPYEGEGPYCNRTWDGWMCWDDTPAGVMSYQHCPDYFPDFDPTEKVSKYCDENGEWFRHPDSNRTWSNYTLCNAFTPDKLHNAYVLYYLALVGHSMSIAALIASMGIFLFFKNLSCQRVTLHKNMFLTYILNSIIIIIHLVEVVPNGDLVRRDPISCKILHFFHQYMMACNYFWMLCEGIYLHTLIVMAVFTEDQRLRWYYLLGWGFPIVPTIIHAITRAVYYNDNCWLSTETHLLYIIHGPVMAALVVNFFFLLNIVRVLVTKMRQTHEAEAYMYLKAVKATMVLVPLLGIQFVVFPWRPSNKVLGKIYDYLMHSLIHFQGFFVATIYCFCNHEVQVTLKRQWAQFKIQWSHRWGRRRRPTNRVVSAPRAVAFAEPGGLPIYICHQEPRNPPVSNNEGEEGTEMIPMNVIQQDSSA
T1 sequence (Q9JJ73 23-147 partner): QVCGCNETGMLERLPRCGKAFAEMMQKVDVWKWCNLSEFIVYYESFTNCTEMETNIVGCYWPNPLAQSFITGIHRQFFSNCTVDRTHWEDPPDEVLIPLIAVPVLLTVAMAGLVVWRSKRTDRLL
In short: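 Membranes for this rat amylin receptor binding assay came from BHK tk′ts 13 cells. The cells were transiently transfected with rat calcitonin receptor using the FuGENE® 6 reagent from Roche, as the manufacturer recommends. The cells were collected approximately 48 hours after transfection, and membranes were then prepared.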

[3] = Table 7, rat binding selectivity, rCTR IC50 / rAmylin-R IC50
[4] = Table 7a (preferred compounds), rat binding selectivity, rCTR IC50 / rAmylin-R IC50
[5] = ratio of rCTR bind IC50 to rAmylin-R bind IC50

## CC[C@H](C)[C@H](NC(=O)[C@H](C)NC(=O)CNC(=O)[C@H](Cc1ccccc1)NC(=O)[C@H](CC(N)=O)NC(=O)[C@@H]1CCCN1C(=O)[C@H](CO)NC(=O)[C@H](CO)NC(=O)[C@H](Cc1c[nH]cn1)NC(=O)[C@H](CCCNC(=N)N)NC(=O)[C@H](CC(C)C)NC(=O)[C@H](Cc1ccccc1)NC(=O)[C@H](CCC(=O)O)NC(=O)[C@H](C)NC(=O)[C@H](CC(C)C)NC(=O)[C@H](CCCNC(=N)N)NC(=O)[C@H](CCC(N)=O)NC(=O)[C@@H](NC(=O)[C@H](C)NC(=O)[C@@H]1CSSC[C@H](NC(=O)[C@@H](N)CCCCNC(=O)CC[C@H](NC(=O)CC[C@H](NC(=O)CCCCCCCCCCCCCCCCCCC(=O)O)C(=O)O)C(=O)O)C(=O)N[C@@H](CC(N)=O)C(=O)N[C@@H]([C@@H](C)O)C(=O)N[C@@H](C)C(=O)N[C@@H]([C@@H](C)O)C(=O)N1)[C@@H](C)O)C(=O)N1CCC[C@H]1C(=O)N[C@@H](CO)C(=O)N[C@@H](CO)C(=O)N[C@H](C(=O)N[C@@H](CC(N)=O)C(=O)N[C@H](C(=O)NCC(=O)N1CCC[C@H]1C(=O)N[C@@H](CC(N)=O)C(=O)N[C@H](C(=O)N[C@@H](Cc1ccccc1)C(N)=O)[C@@H](C)O)C(C)C)[C@@H](C)O [Example 127] (H-K([γGlu-γGlu-C20 diacid])CNTATCATQRLAEFLRHSSPNFGAIPSSTNVGPNTF-NH2; disulfide 2-7 (inferred))
[1]
  ThT pH 4.0 lag time (h): 25 h
[2]; Table 7
  IC50: 0.205 nM
[2]; [3]
  Ratio rCT/rAmylin binding: 114.0
[2]; [4]
  Ratio rCT/rAmylin binding: 114.0
[2]; [5]
  Ratio rCT/rAmylin binding: 114.0

## CC[C@H](C)[C@H](NC(=O)[C@H](C)NC(=O)CNC(=O)[C@H](Cc1ccccc1)NC(=O)[C@H](CC(N)=O)NC(=O)[C@@H]1CCCN1C(=O)[C@H](CO)NC(=O)[C@H](CO)NC(=O)[C@H](Cc1c[nH]cn1)NC(=O)[C@H](CCCNC(=N)N)NC(=O)[C@H](CC(C)C)NC(=O)[C@H](Cc1ccccc1)NC(=O)[C@H](CCC(=O)O)NC(=O)[C@H](C)NC(=O)[C@H](CC(C)C)NC(=O)[C@H](CCCNC(=N)N)NC(=O)[C@H](CCC(N)=O)NC(=O)[C@@H](NC(=O)[C@H](C)NC(=O)[C@@H]1CSSC[C@H](NC(=O)[C@@H](N)CCCCNC(=O)CC[C@H](NC(=O)CCCCCCCCCCCCCCCCCCC(=O)O)C(=O)O)C(=O)N[C@@H](CC(N)=O)C(=O)N[C@@H]([C@@H](C)O)C(=O)N[C@@H](C)C(=O)N[C@@H]([C@@H](C)O)C(=O)N1)[C@@H](C)O)C(=O)N1CCC[C@H]1C(=O)N[C@@H](CO)C(=O)N[C@@H](CO)C(=O)N[C@H](C(=O)N[C@@H](CC(N)=O)C(=O)N[C@H](C(=O)NCC(=O)N[C@@H](CO)C(=O)N[C@@H](Cc1c[nH]cn1)C(=O)N[C@H](C(=O)N[C@@H](Cc1ccc(O)cc1)C(N)=O)[C@@H](C)O)C(C)C)[C@@H](C)O [Example 128] (H-K([γGlu-C20 diacid])CNTATCATQRLAEFLRHSSPNFGAIPSSTNVGSHTY-NH2; disulfide 2-7 (inferred); N-terminus assumed)
[1]
  ThT pH 4.0 lag time (h): 41 h
[2]; Table 7
  IC50: 1.16 nM
[2]; [3]
  Ratio rCT/rAmylin binding: 22.7
[2]; [4]
  Ratio rCT/rAmylin binding: 22.7
[2]; [5]
  Ratio rCT/rAmylin binding: 22.7

## CC[C@H](C)[C@H](NC(=O)[C@H](C)NC(=O)CNC(=O)[C@H](Cc1ccccc1)NC(=O)[C@H](CC(N)=O)NC(=O)[C@@H]1CCCN1C(=O)[C@H](CO)NC(=O)[C@H](CO)NC(=O)[C@H](Cc1c[nH]cn1)NC(=O)[C@H](CCCNC(=N)N)NC(=O)[C@H](CC(C)C)NC(=O)[C@H](Cc1ccccc1)NC(=O)[C@H](C)NC(=O)[C@H](C)NC(=O)[C@H](CC(C)C)NC(=O)[C@H](CCCNC(=N)N)NC(=O)[C@H](CCC(N)=O)NC(=O)[C@@H](NC(=O)[C@H](C)NC(=O)[C@@H]1CSSC[C@H](NC(=O)[C@@H](N)CCCCNC(=O)CC[C@H](NC(=O)CCCCCCCCCCCCCCCCCCC(=O)O)C(=O)O)C(=O)N[C@@H](CC(N)=O)C(=O)N[C@@H]([C@@H](C)O)C(=O)N[C@@H](C)C(=O)N[C@@H]([C@@H](C)O)C(=O)N1)[C@@H](C)O)C(=O)N1CCC[C@H]1C(=O)N[C@@H](CO)C(=O)N[C@@H](CO)C(=O)N[C@H](C(=O)N[C@@H](CC(N)=O)C(=O)N[C@H](C(=O)NCC(=O)N1CCC[C@H]1C(=O)N[C@@H](CC(N)=O)C(=O)N[C@H](C(=O)N[C@@H](Cc1ccc(O)cc1)C(N)=O)[C@@H](C)O)C(C)C)[C@@H](C)O [Example 94] (H-K([γGlu-C20 diacid])CNTATCATQRLAAFLRHSSPNFGAIPSSTNVGPNTY-NH2; disulfide 2-7 (inferred))
[1]
  ThT pH 4.0 lag time (h): 10 h
[2]; Table 7
  IC50: 0.397 nM
[2]; [3]
  Ratio rCT/rAmylin binding: 280.1
[2]; [4]
  Ratio rCT/rAmylin binding: 280.1
[2]; [5]
  Ratio rCT/rAmylin binding: 280.1

## CC[C@H](C)[C@H](NC(=O)[C@H](C)NC(=O)CNC(=O)[C@H](Cc1ccccc1)NC(=O)[C@H](CC(N)=O)NC(=O)[C@@H]1CCCN1C(=O)[C@H](CO)NC(=O)[C@H](CO)NC(=O)[C@H](Cc1c[nH]cn1)NC(=O)[C@H](CCCNC(=N)N)NC(=O)[C@H](CC(C)C)NC(=O)[C@H](Cc1ccccc1)NC(=O)[C@H](CC(N)=O)NC(=O)[C@H](C)NC(=O)[C@H](CC(C)C)NC(=O)[C@H](CCCNC(=N)N)NC(=O)[C@H](CCC(N)=O)NC(=O)[C@@H](NC(=O)[C@H](C)NC(=O)[C@@H]1CSSC[C@H](NC(=O)[C@@H](N)CCCCNC(=O)CC[C@H](NC(=O)CCCCCCCCCCCCCCCCC(=O)O)C(=O)O)C(=O)N[C@@H](CC(N)=O)C(=O)N[C@@H]([C@@H](C)O)C(=O)N[C@@H](C)C(=O)N[C@@H]([C@@H](C)O)C(=O)N1)[C@@H](C)O)C(=O)N1CCC[C@H]1C(=O)N[C@@H](CO)C(=O)N[C@@H](CO)C(=O)N[C@H](C(=O)N[C@@H](CC(N)=O)C(=O)N[C@H](C(=O)NCC(=O)N[C@@H](Cc1c[nH]cn1)C(=O)N[C@@H](CC(N)=O)C(=O)N[C@H](C(=O)N[C@@H](Cc1ccc(O)cc1)C(N)=O)[C@@H](C)O)C(C)C)[C@@H](C)O [Example 113]
[1]
  ThT pH 4.0 lag time (h): 45 h
[2]; Table 7
  IC50: 1.17 nM
[2]; [3]
  Ratio rCT/rAmylin binding: 40.3
[2]; [4]
  Ratio rCT/rAmylin binding: 40.3
[2]; [5]
  Ratio rCT/rAmylin binding: 40.3
